Key:
[1] = tested on: Anaesthetized dog; test: Evaluation of the cardiotonic activity in vivo, anaesthetized dog; set-up: species or system dog (adult mongrel dogs of either sex); Blood Pressure: unit not given here; settings: intravenous
Description: The effects of increasing doses of the drugs were measured upon intravenous administration to anaesthetized dogs. As parameters myocardial contractility, heart rate and arterial blood pressure were registered.
Adult mongrel dogs of either sex received a premedication of morphinhydrochloride (1.0 mg/kg s.c.). Thirty minutes later anaesthesia was induced by chloralose/urethane. The animals were heparinised with 500 I.U. heparin/kg (i.v.) as an initial dosage followed by doses of 250 I.U./kg given every 4 hours.
The trachea was intubated but the animals were allowed to breathe spontaneously. The test solutions were injected via a cannula in the vena cephalica antebrachii dextra. Arterial blood pressure was measured by a cannula in the femoral artery. In order to enable the registration of the myocardial contractility a Millar catheter tip pressure transducer was inserted into the left ventricle by way of the left carotid artery. Arterial blood pressure and left ventricular blood pressure were recorded continuously. Heart rate is triggered from the peak of the blood pressure signal.
From the left ventricular blood pressure the first derivative was calculated by a differentiator amplifier to give left ventricular dp/dt which was recorded as well. The compounds were solved in tetrahydrofurfurylalcohol polyethylene glycolether when necessary with additional heating.
Each dose of the test compounds was administered in a volume of 0.1 ml/kg, the duration of the injection was 1 minute.
The results with the tested compound representing the subject of invention 3,6-Dimethyl-5-[4-(1-imidazolyl)-2-thienyl]-2(1H)-pyridone-hydrochloride=Ain comparison with reference substance 4,5-Dihydro-6-[4-(1-imidazolyl)-phenyl]-3(2H)-pyridazinone ((CI 914, Drugs of the Future 9 (1984), 256)=B are given in the table 1.

[2] = tested on: human platelets; test: Inhibition of the collagen-induced platelets aggregation in vitro (method of Born); assay type: cell-based; settings: read-out: IC50 (concentration which causes an aggregation inhibition of 50%), platelet rich human plasma
Description: The inhibition of the collagen-induced platelets aggregation in vitro was carried out by using the method of Born (Nature, 194, 927-929 (1962)) in using a platelet rich human plasma with the substances of the present invention 3,6-dimethyl-5-[-5-(1-imidazolyl)-2-thienyl]-2(1H)-pyridone-hydrochloride=C, 3,6-dimethyl-5-[4-(1-imidazolyl)phenyl]-2(1H)-pyridone-hydrochloride=D, 5-[4-(1-imidazolyl)-2-thienyl]-6-methyl-2(1H)-pyridone-hydrochloride=E in comparison with the reference substance acetylsalicyclic acid=F.

[3] = Water solubility; assay type: physicochemical; settings: hydrochloride, in words

Row | Structure (SMILES) | Blood Pressure ([1]; 0.01 mg/kg) | Contractility ([1]; 0.01 mg/kg) | Heart Rate ([1]; 0.01 mg/kg) | Blood Pressure ([1]; 0.0316 mg/kg) | Contractility ([1]; 0.0316 mg/kg) | Heart Rate ([1]; 0.0316 mg/kg) | Blood Pressure ([1]; 0.1 mg/kg) | Contractility ([1]; 0.1 mg/kg) | Heart Rate ([1]; 0.1 mg/kg) | IC50 [2] [nM] | other results
1 | Cc1[nH]c(=O)c(C)cc1-c1cc(-n2ccnc2)cs1.Cl [A, 3,6-Dimethyl-5-[4-(1-imidazolyl)-2-thienyl]-2(1H)-pyridone-hydrochloride] | -0.2 | +32.4 | +5.9 | -4.1 | +83.3 | +20.0 | -17.4 | +185.5 | +32.1 |  | 
2 | Cc1[nH]c(=O)ccc1-c1cc(-n2ccnc2)cs1 [E] |  |  |  |  |  |  |  |  |  | 540 | 
3 | Cc1[nH]c(=O)c(C)cc1-c1ccc(-n2ccnc2)s1 [C] |  |  |  |  |  |  |  |  |  | 440 | 
4 | O=C1CCC(c2ccc(-n3ccnc3)cc2)=NN1 [B, 4,5-Dihydro-6-[4-(1-imidazolyl)-phenyl]-3(2H)-pyridazinone, reference compound] | -1.3 | +8.7 | +3.6 | -0.7 | +25.5 | +18.9 | -10.4 | +64.8 | +15.4 |  | 
5 | Cc1[nH]c(=O)c(C)cc1-c1ccc(-n2ccnc2)cc1 [D] |  |  |  |  |  |  |  |  |  | 370 | 
6 | CC1=C(c2ccc(-n3ccnc3)cc2)CCC(=O)N1.Cl [Example 22, 3,4-dihydro-5-[4-(1-imidazolyl)-phenyl]-6-methyl-2(1H)-pyridone-hydrochloride] |  |  |  |  |  |  |  |  |  |  | water solubility [3]: water soluble

Reference: patent US4699914A, “Imidazole group containing 2(1H)-pyridones and method for treating heart insufficiencies in humans” (A. Nattermann & Cie GmbH, priority 1984, dated 1987)
